Experimental data from publication PMC5218480 (PLoS ONE, 2017).

Tested on: MV-4-11 cells
Test: Gene expression microarray analysis (Affymetrix PrimeView) and GSEA
Format: cell-based, human
Design: RFU PODN (11730768_x_at) / Fold change /veh PODN (11730768_x_at) / RFU LINC00158 (11744669_a_at) / Fold change /veh LINC00158 (11744669_a_at) / RFU DUSP10 (11751237_a_at) / Fold change /veh DUSP10 (11751237_a_at) / RFU ID3 (11757404_x_at) / Fold change /veh ID3 (11757404_x_at) / RFU PLEKHG5 (11737974_s_at) / Fold change /veh PLEKHG5 (11737974_s_at) / RFU LRRC4B (11730491_at) / Fold change /veh LRRC4B (11730491_at) / RFU GIMAP4 (11747438_a_at) / Fold change /veh GIMAP4 (11747438_a_at) / RFU KRT8 (11758183_x_at) / Fold change /veh KRT8 (11758183_x_at) / RFU CNN1 (11734310_a_at) / Fold change /veh CNN1 (11734310_a_at) / RFU VPS37D (11726825_at) / Fold change /veh VPS37D (11726825_at) / RFU C10orf10 (11716522_x_at) / Fold change /veh C10orf10 (11716522_x_at) / RFU KIR2DL2 /// KIR2DL4 /// KIR2DL5A /// KIR2DL5B /// KIR2DS1 /// KIR2DS2 /// KIR2DS3 /// KIR2DS4 /// KIR3DL3 /// KIR3DL3 /// KIR3DS1 (11738374_at) / Fold change /veh KIR2DL2 /// KIR2DL4 /// KIR2DL5A /// KIR2DL5B /// KIR2DS1 /// KIR2DS2 /// KIR2DS3 /// KIR2DS4 /// KIR3DL3 /// KIR3DL3 /// KIR3DS1 (11738374_at) / RFU C1QL1 (11718748_at) / Fold change /veh C1QL1 (11718748_at) / RFU TMPRSS4 (11747572_a_at) / Fold change /veh TMPRSS4 (11747572_a_at) / RFU HAMP (11756126_x_at) / Fold change /veh HAMP (11756126_x_at) / RFU RNFT2 (11725882_a_at) / Fold change /veh RNFT2 (11725882_a_at) / RFU NR4A2 (11747474_a_at) / Fold change /veh NR4A2 (11747474_a_at) / RFU ABCC12 (11746883_a_at) / Fold change /veh ABCC12 (11746883_a_at) / RFU TMEM136 (11760407_x_at) / Fold change /veh TMEM136 (11760407_x_at) / RFU CLDN22 /// WWC2 (11732394_at) / Fold change /veh CLDN22 /// WWC2 (11732394_at) / RFU HLA-DPB1 (11760878_x_at) / Fold change /veh HLA-DPB1 (11760878_x_at) / RFU SPINT1 (11716480_a_at) / Fold change /veh SPINT1 (11716480_a_at) / RFU GAP43 (11754022_s_at) / Fold change /veh GAP43 (11754022_s_at) / RFU A4GNT (11735810_at) / Fold change /veh A4GNT (11735810_at) / RFU PRB3 (11715151_x_at) / Fold change /veh PRB3 (11715151_x_at) / RFU TUBB4B (11761932_at) / Fold change /veh TUBB4B (11761932_at) / RFU CAPN14 (11732068_a_at) / Fold change /veh CAPN14 (11732068_a_at) / RFU TMCC2 (11721928_a_at) / Fold change /veh TMCC2 (11721928_a_at) / RFU IRGQ (11745062_a_at) / Fold change /veh IRGQ (11745062_a_at) / RFU FAM174B (11720279_a_at) / Fold change /veh FAM174B (11720279_a_at) / RFU TMPRSS4 (11748680_a_at) / Fold change /veh TMPRSS4 (11748680_a_at) / RFU FAM212B (11763350_a_at) / Fold change /veh FAM212B (11763350_a_at) / RFU PLEKHG5 (11743358_a_at) / Fold change /veh PLEKHG5 (11743358_a_at) / RFU ZSCAN30 (11745921_a_at) / Fold change /veh ZSCAN30 (11745921_a_at) / RFU CMKLR1 (11741424_a_at) / Fold change /veh CMKLR1 (11741424_a_at) / RFU LOC101060620 /// MAPK8IP1 (11723275_at) / Fold change /veh LOC101060620 /// MAPK8IP1 (11723275_at) / RFU SPTSSB (11747773_x_at) / Fold change /veh SPTSSB (11747773_x_at) / RFU PRSS12 (11739890_at) / Fold change /veh PRSS12 (11739890_at) / RFU BIN1 (11741810_x_at) / Fold change /veh BIN1 (11741810_x_at) / RFU WNT11 (11732464_a_at) / Fold change /veh WNT11 (11732464_a_at) / RFU C10orf10 (11716521_a_at) / Fold change /veh C10orf10 (11716521_a_at) / RFU C5orf56 (11738089_at) / Fold change /veh C5orf56 (11738089_at) / RFU CYB561 (11721691_x_at) / Fold change /veh CYB561 (11721691_x_at) / RFU ANKRD19P (11752326_a_at) / Fold change /veh ANKRD19P (11752326_a_at) / RFU OR2T12 /// OR2T33 /// OR2T8 (11738714_s_at) / Fold change /veh OR2T12 /// OR2T33 /// OR2T8 (11738714_s_at) / RFU VCAN (11748164_a_at) / Fold change /veh VCAN (11748164_a_at) / RFU JSRP1 (11732532_at) / Fold change /veh JSRP1 (11732532_at) / RFU KRTAP10-11 (11738290_x_at) / Fold change /veh KRTAP10-11 (11738290_x_at) / RFU MYO3A (11730013_a_at) / Fold change /veh MYO3A (11730013_a_at) / RFU EBF3 (11725865_a_at) / Fold change /veh EBF3 (11725865_a_at) / RFU CAMK2N1 (11719241_x_at) / Fold change /veh CAMK2N1 (11719241_x_at) / RFU C5orf56 (11738088_a_at) / Fold change /veh C5orf56 (11738088_a_at) / RFU OLFML3 (11715873_a_at) / Fold change /veh OLFML3 (11715873_a_at) / RFU LOC100653217 /// NTM (11731650_a_at) / Fold change /veh LOC100653217 /// NTM (11731650_a_at) / RFU MAPK11 (11762145_a_at) / Fold change /veh MAPK11 (11762145_a_at) / RFU FIZ1 (11724087_x_at) / Fold change /veh FIZ1 (11724087_x_at) / RFU OASL (11726364_x_at) / Fold change /veh OASL (11726364_x_at) / RFU SOX15 (11748057_x_at) / Fold change /veh SOX15 (11748057_x_at) / RFU CD79A (11719716_a_at) / Fold change /veh CD79A (11719716_a_at) / RFU HIST1H1D (11736915_at) / Fold change /veh HIST1H1D (11736915_at) / RFU CASKIN2 (11723855_a_at) / Fold change /veh CASKIN2 (11723855_a_at) / RFU LOC730098 (11760151_x_at) / Fold change /veh LOC730098 (11760151_x_at) / RFU OR4N2 (11742367_at) / Fold change /veh OR4N2 (11742367_at) / RFU PRRT2 (11749266_a_at) / Fold change /veh PRRT2 (11749266_a_at) / RFU SNX32 (11753110_a_at) / Fold change /veh SNX32 (11753110_a_at) / RFU CDHR5 (11726645_a_at) / Fold change /veh CDHR5 (11726645_a_at) / RFU RCAN1 (11760418_a_at) / Fold change /veh RCAN1 (11760418_a_at) / RFU FAM167A (11723789_a_at) / Fold change /veh FAM167A (11723789_a_at) / RFU FAM26E (11764081_at) / Fold change /veh FAM26E (11764081_at) / RFU ISYNA1 (11749810_s_at) / Fold change /veh ISYNA1 (11749810_s_at) / RFU ACY1 (11761880_at) / Fold change /veh ACY1 (11761880_at) / RFU 11764098_at / Fold change /veh 11764098_at / RFU SAMD14 (11745864_x_at) / Fold change /veh SAMD14 (11745864_x_at) / RFU NPB (11741838_a_at) / Fold change /veh NPB (11741838_a_at) / RFU TMPRSS6 (11731388_a_at) / Fold change /veh TMPRSS6 (11731388_a_at) / RFU KRTAP10-2 (11738614_at) / Fold change /veh KRTAP10-2 (11738614_at) / RFU ARHGAP8 /// PRR5-ARHGAP8 (11727945_x_at) / Fold change /veh ARHGAP8 /// PRR5-ARHGAP8 (11727945_x_at) / RFU KRTAP5-7 /// NADSYN1 (11734609_at) / Fold change /veh KRTAP5-7 /// NADSYN1 (11734609_at) / RFU RASL12 (11751679_a_at) / Fold change /veh RASL12 (11751679_a_at) / RFU CDKN2B (11736163_a_at) / Fold change /veh CDKN2B (11736163_a_at) / RFU PRF1 (11729649_at) / Fold change /veh PRF1 (11729649_at) / RFU, ZNF638 /// ZNF638-IT1 / Fold change vs veh, ZNF638 /// ZNF638-IT1 / RFU, PANK3 / Fold change vs veh, PANK3 / RFU, SH3YL1 / Fold change vs veh, SH3YL1 / RFU, ZEB2 / Fold change vs veh, ZEB2 / RFU, NRIP1 / Fold change vs veh, NRIP1 / RFU, PTTG1IP / Fold change vs veh, PTTG1IP / RFU, CAPN2 / Fold change vs veh, CAPN2 / RFU, MED14 / Fold change vs veh, MED14 / RFU, SNORA58 / Fold change vs veh, SNORA58 / RFU, C1orf63 / Fold change vs veh, C1orf63 / RFU, LRRFIP1 / Fold change vs veh, LRRFIP1 / RFU, NDUFAF7 / Fold change vs veh, NDUFAF7 / RFU, SLC12A2 / Fold change vs veh, SLC12A2 / RFU, IBTK / Fold change vs veh, IBTK / RFU, ESF1 / Fold change vs veh, ESF1 / Fold change vs veh, TMEM50B / RFU, TAOK1 / Fold change vs veh, TAOK1 / RFU, ACBD3 / Fold change vs veh, ACBD3 / RFU, TMA16 / Fold change vs veh, TMA16 / RFU, RWDD3 / Fold change vs veh, RWDD3 / RFU, BCAT1 / Fold change vs veh, BCAT1 / RFU, EDEM3 / Fold change vs veh, EDEM3 / RFU, TMEM33 / Fold change vs veh, TMEM33 / RFU, WDR75 / Fold change vs veh, WDR75 / RFU, AHCTF1 / Fold change vs veh, AHCTF1 / RFU, TFRC / Fold change vs veh, TFRC / RFU, ZDHHC17 / Fold change vs veh, ZDHHC17 / RFU, NOM1 / Fold change vs veh, NOM1 / RFU, ARL8B / Fold change vs veh, ARL8B / RFU, ZBTB11 / Fold change vs veh, ZBTB11 / RFU, TAMM41 / Fold change vs veh, TAMM41 / RFU, KIAA1704 /// LOC100996395 / Fold change vs veh, KIAA1704 /// LOC100996395 / RFU, ING1 / Fold change vs veh, ING1 / RFU, TRMT61B / Fold change vs veh, TRMT61B / RFU, FUBP3 / Fold change vs veh, FUBP3 / RFU, TP53 / Fold change vs veh, TP53 / RFU, TNKS2 / Fold change vs veh, TNKS2 / RFU, ZFP14 / Fold change vs veh, ZFP14 / RFU, ACTR2 / Fold change vs veh, ACTR2 / RFU, PPP3R1 / Fold change vs veh, PPP3R1 / RFU, PIK3R1 / Fold change vs veh, PIK3R1 / RFU, HNRNPA1 / Fold change vs veh, HNRNPA1 / RFU, RNF170 / Fold change vs veh, RNF170 / RFU, ZNF28 / Fold change vs veh, ZNF28 / RFU, RNGTT / Fold change vs veh, RNGTT / RFU, OGT / Fold change vs veh, OGT / RFU, BRD1 / Fold change vs veh, BRD1 / RFU, MARS / Fold change vs veh, MARS / RFU, ZNF655 / Fold change vs veh, ZNF655 / RFU, FAHD1 / Fold change vs veh, FAHD1 / RFU, BDP1 / Fold change vs veh, BDP1 / RFU, LRRCC1 / Fold change vs veh, LRRCC1 / RFU, ARID1A / Fold change vs veh, ARID1A / RFU, ZNF146 / Fold change vs veh, ZNF146 / RFU, ZNF330 / Fold change vs veh, ZNF330 / RFU, GPN3 / Fold change vs veh, GPN3 / RFU, C9orf123 / Fold change vs veh, C9orf123 / RFU, N4BP2L2 / Fold change vs veh, N4BP2L2 / RFU, ARFIP1 / Fold change vs veh, ARFIP1 / RFU, FAM179B / Fold change vs veh, FAM179B / RFU, BCL10 / Fold change vs veh, BCL10 / RFU, UHRF1BP1L / Fold change vs veh, UHRF1BP1L / RFU, BET1 / Fold change vs veh, BET1 / RFU, CNOT2 / Fold change vs veh, CNOT2 / RFU, ZNF268 / Fold change vs veh, ZNF268 / Fold change vs veh, ZNF507 / RFU, DGCR2 / Fold change vs veh, DGCR2 / RFU, WDSUB1 / Fold change vs veh, WDSUB1 / Fold change vs veh, HSP90B1 /// MIR3652 / RFU, ADSS / Fold change vs veh, ADSS / RFU, GK / Fold change vs veh, GK / RFU, ZNF148 / Fold change vs veh, ZNF148 / RFU, TAF9 / Fold change vs veh, TAF9 / RFU, SLC1A5 / Fold change vs veh, SLC1A5 / RFU, SLMO2 / Fold change vs veh, SLMO2 / RFU, ABCC4 / Fold change vs veh, ABCC4 / RFU, LOC101060439 /// RAP1B / Fold change vs veh, LOC101060439 /// RAP1B / RFU, RFX7 / Fold change vs veh, RFX7 / RFU, GTPBP10 / Fold change vs veh, GTPBP10 / RFU, CNEP1R1 / Fold change vs veh, CNEP1R1 / RFU, BIVM-ERCC5 /// ERCC5 / Fold change vs veh, BIVM-ERCC5 /// ERCC5 / RFU, ILF3 / Fold change vs veh, ILF3 / RFU 11762660_at / Fold change /veh 11762660_at / RFU VCAN (11757783_s_at) / Fold change /veh VCAN (11757783_s_at) / RFU DDX43 (11728927_at) / Fold change /veh DDX43 (11728927_at) / RFU KRT8 (11758188_x_at) / Fold change /veh KRT8 (11758188_x_at) / RFU NKD1 (11759106_at) / Fold change /veh NKD1 (11759106_at) / RFU SRD5A1 (11742802_a_at) / Fold change /veh SRD5A1 (11742802_a_at) / RFU TPSAB1 /// TPSB2 (11721975_s_at) / Fold change /veh TPSAB1 /// TPSB2 (11721975_s_at) / RFU GSTM3 (11746129_a_at) / Fold change /veh GSTM3 (11746129_a_at) / RFU IL23R (11737362_x_at) / Fold change /veh IL23R (11737362_x_at) / RFU TMEM51 (11727254_a_at) / Fold change /veh TMEM51 (11727254_a_at) / RFU PIWIL2 (11732686_x_at) / Fold change /veh PIWIL2 (11732686_x_at) / RFU ORM1 (11744905_x_at) / Fold change /veh ORM1 (11744905_x_at) / RFU CCDC152 (11743942_at) / Fold change /veh CCDC152 (11743942_at) / RFU ECM1 (11717891_a_at) / Fold change /veh ECM1 (11717891_a_at) / RFU IL23R (11748794_a_at) / Fold change /veh IL23R (11748794_a_at) / RFU TNFAIP8L3 (11732012_x_at) / Fold change /veh TNFAIP8L3 (11732012_x_at) / RFU MBOAT4 (11741988_at) / Fold change /veh MBOAT4 (11741988_at) / RFU 11764193_at / Fold change /veh 11764193_at / RFU TMEM53 (11763286_at) / Fold change /veh TMEM53 (11763286_at) / RFU MAGEB2 (11727129_at) / Fold change /veh MAGEB2 (11727129_at) / RFU TMEM200A (11744735_a_at) / Fold change /veh TMEM200A (11744735_a_at) / RFU CCDC152 (11751479_a_at) / Fold change /veh CCDC152 (11751479_a_at) / RFU FAM211A (11726209_a_at) / Fold change /veh FAM211A (11726209_a_at) / RFU RGS16 (11746705_a_at) / Fold change /veh RGS16 (11746705_a_at) / RFU VCAN (11755009_s_at) / Fold change /veh VCAN (11755009_s_at) / RFU RHOB (11743442_s_at) / Fold change /veh RHOB (11743442_s_at) / RFU RGS16 (11720943_a_at) / Fold change /veh RGS16 (11720943_a_at) / RFU RGS16 (11720944_at) / Fold change /veh RGS16 (11720944_at) / RFU, VPS4B / Fold change vs veh, VPS4B / RFU, CREB1 / Fold change vs veh, CREB1 / RFU, DNAJC13 / Fold change vs veh, DNAJC13 / RFU, GNAQ / Fold change vs veh, GNAQ / RFU, CDK5R1 / Fold change vs veh, CDK5R1 / RFU, ZRANB3 / Fold change vs veh, ZRANB3 / RFU, CUL4A / Fold change vs veh, CUL4A / RFU, CCNY / Fold change vs veh, CCNY / RFU, UFL1 / Fold change vs veh, UFL1 / RFU, COG3 / Fold change vs veh, COG3 / RFU, DIAPH2 / Fold change vs veh, DIAPH2 / RFU, SKA2 / Fold change vs veh, SKA2 / RFU, AFF3 / Fold change vs veh, AFF3 / RFU, LMF1 / Fold change vs veh, LMF1 / RFU, IPO11 / Fold change vs veh, IPO11 / RFU, DFFB / Fold change vs veh, DFFB / RFU, FOXP1 / Fold change vs veh, FOXP1 / RFU, CARD8 / Fold change vs veh, CARD8 / RFU, STRN3 / Fold change vs veh, STRN3 / RFU, ADK / Fold change vs veh, ADK / RFU, RASSF2 / Fold change vs veh, RASSF2 / RFU, WIPF1 / Fold change vs veh, WIPF1 / RFU, LARP1B / Fold change vs veh, LARP1B / RFU, RASA1 / Fold change vs veh, RASA1 / RFU, RB1 / Fold change vs veh, RB1 / RFU, PPFIA1 / Fold change vs veh, PPFIA1 / RFU, MAT2A / Fold change vs veh, MAT2A / RFU, CCT5 / Fold change vs veh, CCT5 / RFU, WDR92 / Fold change vs veh, WDR92 / RFU, CUX1 / Fold change vs veh, CUX1 / RFU, TTC7A / Fold change vs veh, TTC7A / RFU, TMEM135 / Fold change vs veh, TMEM135 / RFU, DEPTOR / Fold change vs veh, DEPTOR / RFU, CPM / Fold change vs veh, CPM / RFU, DNAJB6 / Fold change vs veh, DNAJB6 / RFU, CACNA2D3 / Fold change vs veh, CACNA2D3 / RFU, DTX4 / Fold change vs veh, DTX4 / RFU, TFCP2 / Fold change vs veh, TFCP2 / RFU, GMCL1 /// GMCL1P1 / Fold change vs veh, GMCL1 /// GMCL1P1 / RFU, AEBP2 / Fold change vs veh, AEBP2 / RFU, SNHG1 /// SNORD22 /// SNORD25 /// SNORD26 /// SNORD27 /// SNORD28 /// SNORD29 /// SNORD31 / Fold change vs veh, SNHG1 /// SNORD22 /// SNORD25 /// SNORD26 /// SNORD27 /// SNORD28 /// SNORD29 /// SNORD31 / Fold change (Aza/veh), C12orf56 (ProbeSet 11735607_a_at) / Fold change (ACY-1035/veh), C12orf56 (ProbeSet 11735607_a_at) / Fold change (Aza/veh), FGFR1OP (ProbeSet 11751329_s_at) / Fold change (ACY-1035/veh), FGFR1OP (ProbeSet 11751329_s_at) / Fold change (Aza/veh), VPS36 (ProbeSet 11739960_a_at) / Fold change (ACY-1035/veh), VPS36 (ProbeSet 11739960_a_at) / RFU SYPL1 (11715823_x_at) / Fold change /veh SYPL1 (11715823_x_at) / RFU IGFBP7 (11715501_s_at) / Fold change /veh IGFBP7 (11715501_s_at) / RFU REEP3 (11722064_at) / Fold change /veh REEP3 (11722064_at) / RFU IGLL1 (11728026_x_at) / Fold change /veh IGLL1 (11728026_x_at): dose or concentration left out as unconfirmed
Conditions: ProbeSet 11757113_a_at; LIST D

Nc1ncn([C@@H]2O[C@H](CO)[C@@H](O)[C@H]2O)c(=O)n1 [azacitidine]
RFU, SNHG1 /// SNORD22 /// SNORD25 /// SNORD26 /// SNORD27 /// SNORD28 /// SNORD29 /// SNORD31: 298.12 RFU
